For orientation: IC50 means the concentration at which inhibition is half-maximal.

Counter-ions that a name gives are not always drawn.

The source of these data is patent US20250236608A1, “EGFR INHIBITORS” (Blueprint Medicines Corporation, priority 2022, published 2025).

Assay [1] addresses EGFR L858R (Homo sapiens (Human), UniProt P00533, L858R). The experiment in a line: Biochemical EGFR inhibition assay, EGFR L858R. The conditions noted are these: Caliper mobility shift; 1.0 mM ATP or ATP Km; read-out: Enz EGFR_L858R IC50. How it is done: (§1) Reactions proceeded until between 10% to 20% total peptides were phosphorylated at room temperature (25° C.) and were terminated with 35 mM 2,2′,2″,2″-(ethane-1,2-diyldinitrilo)tetraacetic acid (EDTA). Product was detected using the Caliper mobility shift detection method where the phosphorylated peptide (product) and substrate were electrophoretically separated and measured. Percent activity was plotted against log concentration of compound and points to generate an apparent IC50.

The target of assay [2] is pEGFR (Tyr1068) in PC-9 cells (Ex19Del) (Homo sapiens (Human), UniProt P00533, DEL746-750). As to the kind of experiment: PC-9 pEGFR AlphaLISA assay. The conditions noted are these: 4 hours incubation, p-EGFR (Tyr1068) AlphaLISA, read-out: Ext pEGFR_PC-9 Ex19Del IC50. The class given is cell-based. How it is done:
PC-9/A431 pEGFR AlphaLISA Assays
Inhibitory effects of compounds were evaluated in cellular assays that measure level of intracellular phosphorylation of EGFR in PC-9 (ECACC, #90071810, Milipore/Sigma) and A431 cell lines (ATCC, CRL-1555) using AlphaLISA sureFire ultra p-EGFR (Tyr1068) assay kit (PerkinElmer, ALSU-PEGFR-A50K). PC-9 cells were seeded at 3.125×10^5 cells/ml in 40 μL phenol-free DMEM supplemented with 10% FBS per well of a 384 well plate (Corning, 3764), while A431 were seeded at 3.125×10^5 cells/ml in 40 μL in phenol-free DMEM with 0.5% FBS. Cells were allowed to adhere overnight at 37° C./5% CO2. On the next day, compounds were transferred at 4-fold, 10-point serial dilution from compound source plate to cell plates using liquid handler Echo550 and were incubated at 37° C./5% CO2 for 4 hours. A431 cells were stimulated prior harvesting for 10 min with EGF at final concentration of 30 ng/ml in the incubator. Medium was removed from the plates and cells were lysed with 10 μL of 1× AlphaLISA lysis buffer (supplemented with 1× protease/phosphatase inhibitor cocktail) followed by shaking at 600 rpm for 30 minutes at room temperature. Lysates were transferred to Optiplate (Apricot designs) and 5 μl of 1× acceptor bead mix (prepared just before use) was added to each well followed by incubation at room temperature for 1.5-2 h in dark. Then 5 μL of freshly-made donor bead mix is added to each well under subdued lighting or green filters, was mixed well on the shaker and the plate was sealed and left for an overnight incubation at room temperature in dark. On the next day, the plate was read the Envision using standard AlphaLisa settings. Percent of pEGFR inhibition was plotted against log concentration of compounds to generate IC50 values.
Background: Alpha assays give light when donor and acceptor beads are brought close together.

For assay [3], the target named is EGFR (d746-750) (Homo sapiens (Human), UniProt P00533, DEL746-750). The experiment in a line: Biochemical EGFR inhibition assay, EGFR (d746-750). Particulars: Caliper mobility shift; 1.0 mM ATP or ATP Km; read-out: Enz EGFR_Exon19-del746-750 IC50. How it is done:
as §1

Regarding `COc1cc2ncnc(-c3cn(C)nc3-c3ccccc3)c2cc1NC(=O)c1cccnc1` [Example 325, N-(7-methoxy-4-(1-methyl-3-phenyl-1H-pyrazol-4-yl)quinazolin-6-yl)nicotinamide], the half-inhibitory concentration (IC50) in assay [1] is 1.7 nM; in assay [2] it was 2 nM; in assay [3] it was 1 nM.
The like results for `COc1cc2ncnc(-c3cn(C)nc3-c3ccccc3)c2cc1NC(=O)c1ncccn1` [Example 192, N-(7-methoxy-4-(1-methyl-3-phenyl-1H-pyrazol-4-yl)quinazolin-6-yl)pyrimidine-2-carboxamide] were, in that order, 1.1 nM, 1.6 nM and 0.7 nM.
For `COc1cc2ncnc(-c3cn(C4CC4)nc3-c3ccccc3)c2nc1NC(=O)[C@]12C[C@H]1CN(C)C2` (single isomer, unassigned) [Example 407, (1R,5R)—N-(4-(1-cyclopropyl-3-phenyl-1H-pyrazol-4-yl)-7-methoxypyrido[3,2-d]pyrimidin-6-yl)-3-methyl-3-azabicyclo[3.1.0]hexane-1-carboxamide or (1S,5S)—N-(4-(1-cyclopropyl-3-phenyl-1H-pyrazol-4-yl)-7-methoxypyrido[3,2-d]pyrimidin-6-yl)-3-methyl-3-azabicyclo[3.1.0]hexane-1-carboxamide] the same measures were 2.1 nM, 1.4 nM and 0.7 nM.
For `COc1cc2ncnc(-c3cn(C)nc3-c3ccccc3)c2cc1NC(=O)[C@@H]1C[C@@H]1C` [Example 283, (1R,2S)—N-(7-methoxy-4-(1-methyl-3-phenyl-1H-pyrazol-4-yl)quinazolin-6-yl)-2-methylcyclopropane-1-carboxamide] the same measures were 1.7 nM, 1.1 nM and 0.9 nM.
`CCC(=O)Nc1cc2c(-c3cn(C)nc3-c3ccccc3)ncnc2cc1-c1ccncn1` [Example 448, N-(4-(1-methyl-3-phenyl-1H-pyrazol-4-yl)-7-(pyrimidin-4-yl)quinazolin-6-yl)propionamide]: the IC50 in assay [2] amounted to 6.5 nM.
Turning to “7-ethoxy-6-(2-methyl-2H-indazol-4-yl)-4-(1-methyl-3-phenyl-1H-pyrazol-4-yl)pyrido[3,2-d]pyrimidine [Example 156]”, the concentration for half-maximal inhibition (IC50) in assay [1] turned out to be 3.2 nM; in assay [2] it was 2.4 nM.
For the compound `COc1cc2ncnc(-c3cn(C)nc3-c3ccccc3)c2cc1-c1ccc2c(=O)[nH]ccc2c1` [Example 144, 6-(7-methoxy-4-(1-methyl-3-phenyl-1H-pyrazol-4-yl)quinazolin-6-yl)isoquinolin-1(2H)-one], the IC50 in assay [2] came to 8.3 nM.
On to `COc1cc2ncnc(-c3cn(C)nc3-c3ccccc3)c2cc1-c1cc2c[nH]nc2cc1C` [Example 146, 7-methoxy-6-(6-methyl-2H-indazol-5-yl)-4-(1-methyl-3-phenyl-1H-pyrazol-4-yl)quinazoline], for which the half-inhibitory concentration (IC50) in assay [1] turned out to be 8.2 nM.
As for `COc1cc2ncnc(-c3cn(C)nc3-c3ccccc3)c2cc1NC(=O)[C@]12C[C@H]1CN(C)C2` [Example 337, (1R,5R)—N-(7-methoxy-4-(1-methyl-3-phenyl-1H-pyrazol-4-yl)quinazolin-6-yl)-3-methyl-3-azabicyclo[3.1.0]hexane-1-carboxamide], the 50% inhibitory concentration (IC50) in assay [2] stood at 5.9 nM.
Turning to `COc1cc2ncnc(-c3cn(C)nc3-c3ccccc3)c2cc1-c1cc2c[nH]nc2cc1C` [Example 147, 7-methoxy-6-(6-methyl-2H-indazol-5-yl)-4-(1-methyl-3-phenyl-1H-pyrazol-4-yl)quinazoline], the IC50 in assay [1] came to 13.7 nM.
Consider `COc1cc2ncnc(-c3cn(C)nc3-c3ccccc3)c2cc1NC(=O)[C@@H]1CCN1C` (single isomer, unassigned) [Example 252, (S)—N-(7-methoxy-4-(1-methyl-3-phenyl-1H-pyrazol-4-yl)quinazolin-6-yl)-1-methylazetidine-2-carboxamide or (R)—N-(7-methoxy-4-(1-methyl-3-phenyl-1H-pyrazol-4-yl)quinazolin-6-yl)-1-methylazetidine-2-carboxamide], for which the IC50 in assay [2] was 3.2 nM.
As to `COc1cc2ncnc(-c3cn(C)nc3-c3ccccc3)c2cc1-c1ccc2n[nH]cc2c1C` [Example 145, 7-methoxy-6-(4-methyl-2H-indazol-5-yl)-4-(1-methyl-3-phenyl-1H-pyrazol-4-yl)quinazoline], the IC50 in assay [2] turned out to be 5.9 nM.
`COc1cc2ncnc(-c3cn(C)nc3-c3ccccc3)c2cc1-c1ccnc(N2CCNCC2)c1` [Example 139, 7-methoxy-4-(1-methyl-3-phenyl-1H-pyrazol-4-yl)-6-(2-(piperazin-1-yl)pyridin-4-yl)quinazoline formate]: the half-inhibitory concentration (IC50) in assay [2] stood at 5.1 nM.
On the same count and under the same terms, to `COc1cc2ncnc(-c3cn(C)nc3-c3ccccc3)c2cc1NC(=O)C12C3C4C1C1C2C3C41NC(=O)OC(C)(C)C` (stereo not drawn) [Example 343, tert-butyl (4-((7-methoxy-4-(1-methyl-3-phenyl-1H-pyrazol-4-yl)quinazolin-6-yl)carbamoyl)cuban-1-yl)carbamate] belongs 4.5 nM.
With `COc1cc2ncnc(-c3cn(C)nc3-c3c(F)cccc3F)c2nc1NC(=O)[C@@]12C[C@@H]1CN(C)C2` (single isomer, unassigned) [Example 412, (1S,5S)—N-(4-(3-(2,6-difluorophenyl)-1-methyl-1H-pyrazol-4-yl)-7-methoxypyrido[3,2-d]pyrimidin-6-yl)-3-methyl-3-azabicyclo[3.1.0]hexane-1-carboxamide or (1R,5R)—N-(4-(3-(2,6-difluorophenyl)-1-methyl-1H-pyrazol-4-yl)-7-methoxypyrido[3,2-d]pyrimidin-6-yl)-3-methyl-3-azabicyclo[3.1.0]hexane-1-carboxamide], the figures for the IC50 in assay [1] and in assay [2] were 26 nM and 6.7 nM, respectively.
Consider `CN1CC[C@@H](Oc2cc3c(-c4cn(C)nc4-c4ccccc4)ncnc3cc2OC2CC2)[C@H](F)C1` [Example 476, 7-cyclopropoxy-6-(((3R,4R)-3-fluoro-1-methylpiperidin-4-yl)oxy)-4-(1-methyl-3-phenyl-1H-pyrazol-4-yl)quinazoline], for which the concentration for half-maximal inhibition (IC50) in assay [1] worked out at 5.4 nM; in assay [3], 1.3 nM.
Take `COc1cc2ncnc(-c3cn(C)nc3-c3ccccc3)c2cc1NC(=O)C1CCN1C` (stereo not drawn) [Example 251, N-(7-methoxy-4-(1-methyl-3-phenyl-1H-pyrazol-4-yl)quinazolin-6-yl)-1-methylazetidine-2-carboxamide]: in assay [2], the IC50 came out at 3.5 nM.
With `COc1cc2ncnc(-c3cn(C)nc3-c3c(F)cccc3F)c2nc1NC(=O)[C@]12C[C@H]1CN(C)C2` (single isomer, unassigned) [Example 413, (1R,5R)—N-(4-(3-(2,6-difluorophenyl)-1-methyl-1H-pyrazol-4-yl)-7-methoxypyrido[3,2-d]pyrimidin-6-yl)-3-methyl-3-azabicyclo[3.1.0]hexane-1-carboxamide or (1S,5S)—N-(4-(3-(2,6-difluorophenyl)-1-methyl-1H-pyrazol-4-yl)-7-methoxypyrido[3,2-d]pyrimidin-6-yl)-3-methyl-3-azabicyclo[3.1.0]hexane-1-carboxamide], the figures for the IC50 in assay [1] and in assay [2] were 10 nM and 23.2 nM, respectively.
On to `Cn1cc(-c2ccc3c(-c4c[nH]nc4-c4cccc(Cl)c4)ncnc3c2)cn1` [Example 440, 4-(3-(3-chlorophenyl)-1H-pyrazol-4-yl)-7-(1-methyl-1H-pyrazol-4-yl)quinazoline], for which the IC50 in assay [1] worked out at 0.9 nM; in assay [2], 1.1 nM.
`COc1cc2ncnc(-c3cn(C)nc3-c3ccccc3)c2cc1NC(=O)[C@@]12C[C@@H]1CN(C)C2` [Example 336, (1S,5S)—N-(7-methoxy-4-(1-methyl-3-phenyl-1H-pyrazol-4-yl)quinazolin-6-yl)-3-methyl-3-azabicyclo[3.1.0]hexane-1-carboxamide]: the half-inhibitory concentration (IC50) in assay [2] stood at 4 nM.
